“Also recorded” adds a separate entry of the source. Read-outs that look alike come from different tables or passages of the source.
Key:
[1] = DNS cytotoxicity assay, MCF10A; assay type: cell-based; details: human, MCF10A non-cancerous cells, 72 hr incubations, read-out: Cell Line CC50 MCF10A*
Procedure: (§1) Since the non-adherent (free floating) lymphoma/leukemia cell lines divide faster than the adherent cell lines, they were incubated for a shorter period (48 h) of time with the compound.

[2] = test system: Jurkat; assay: DNS cytotoxicity assay, Jurkat; assay type: cell-based, human; details: for CC50: Homo sapiens, Jurkat, Lymphoma-Leukemia, 48 hrs
Text: (§2) Using the high throughput Differential Nuclear Staining (DNS) screening assay (Lema et al., Current Cellular Biochemistry 1, 1-14, 2011) 15 pyrazole compounds were synthesized and screened on the human T-cell Acute Lymphoblastic Leukemia CEM cell line (Tables 1 and 2). […] The compounds were synthesized based on a pyrazole backbone structure previously determined to have potent cytotoxic activity (FIG. 5). Several commercial and non-commercial analogues (see Table 3) have been tested and determined that the ones with highest activity have a similar structure circled in FIG. 5. […] SSK-3 has been tested on a few cancer cell lines (see Table 4) and also found to induce programmed cell death via a variety of biochemical assays. […] Since the non-adherent (free floating) lymphoma/leukemia cell lines divide faster than the adherent cell lines, they were incubated for a shorter period (48 h) of time with the compound.
SSK-3 has potent cytotoxic activity against a panel of human cancer cell lines. The cytotoxic activity of SSK-3 was examined by the DNS assay (Lema et al., Current Cellular Biochemistry 1, 1-14, 2011). Lymphoma/leukemia cell lines, which grow in suspension, were incubated for 48 h with the compounds. Since the adherent cells generally divide at a slower rate than the non-adherent cell lines, the MDA-MB231, HCC1419, T47D, COLO205, PANC-1, A-549 adherent cancer cells lines were incubated for 72 h in the presence of the compounds. After treatment, images were acquired and analyzed to determine percentages of live/dead cells and their cytotoxicity. […] The Hs-27 non-cancerous human foreskin fibroblast cell line was used for comparison purposes.

[3] = test system: MDA-MB231; assay: DNS cytotoxicity assay, MDA-MB-231; assay type: cell-based; details: Homo sapiens
Procedure: as §1
(§3) Lymphoma/leukemia cell lines, which grow in suspension, were incubated for 48 h with the compounds. […] After treatment, images were acquired and analyzed to determine percentages of live/dead cells and their cytotoxicity. […] The Hs-27 non-cancerous human foreskin fibroblast cell line was used for comparison purposes.

[4] = DNS cytotoxicity assay, HS-27 non-cancerous fibroblast; assay type: cell-based; details: human, Hs-27 non-cancerous foreskin fibroblast cells
Procedure: as §1, §3

[5] = test system: CEM cells; assay: Phosphatidylserine externalization, Annexin V-FITC/PI assay; assay type: cell-based, human
Procedure: FIG. 1. […] CEM cells were treated at the CC50 and twice (2×) that concentration of SSK-3. Note that PS externalization is an early marker of apoptosis. * Indicates P value less than 0.001.
SSK-3 induces significant phosphatidylserine externalization. To corrobotate whether SSK-3 utilizes apoptosis to induce cell death, we measured phosphatidylserine (PS) externalization in SSK-3-treated CEM cells by using the Annexin V-FITC/PI assay (3, 4).

[6] = test system: CEM cell line; assay: DNS cytotoxicity assay, CEM; assay type: cell-based, human
Text: […] […] After treatment, images were acquired and analyzed to determine percentages of live/dead cells and their cytotoxicity. […] The Hs-27 non-cancerous human foreskin fibroblast cell line was used for comparison purposes.

[7] = test system: CEM cells; assay: Generation of Reactive Oxygen Species; assay type: cell-based, human; details: CC50 and 2×CC50
[8] = test system: Jeko-1; assay: DNS cytotoxicity assay, Jeko-1; assay type: cell-based; details: Homo sapiens, Mantle cell Lymphoma, 48 or 72 hrs
Text: as §2
(§4) SSK-3 has potent cytotoxic activity against a panel of human cancer cell lines. The cytotoxic activity of SSK-3 was examined by the DNS assay (Lema et al., Current Cellular Biochemistry 1, 1-14, 2011). Lymphoma/leukemia cell lines, which grow in suspension, were incubated for 48 h with the compounds. […] After treatment, images were acquired and analyzed to determine percentages of live/dead cells and their cytotoxicity. […]

[9] = test system: RAMOS; assay: DNS cytotoxicity assay, RAMOS; assay type: cell-based; details: Homo sapiens, Lymphoma-Leukemia, 48 hrs
Text: as §2, §4

[10] = test system: NALM-6; assay: DNS cytotoxicity assay, NALM-6; assay type: cell-based; details: Homo sapiens, Lymphoma-Leukemia, 48 hrs
Text: as §2, §4

[11] = test system: CEM cells; assay: Mitochondrial depolarization; assay type: cell-based, human; details: CC50 and 2×CC50
Procedure: (§5) FIG. 2A-2C. […] CEM cells were treated at the CC50 and twice (2×) that concentration of SSK-3.
(§6) SSK-3 induces caspase-3 activation. Mitochondrial depolarization is one of the salient features of cell-death induction and this was observed after treatment of CEM cells with SSK-3 (FIG. 2A). […] CEM cells were treated with SSK-3 for 7 h and subsequently stained with the NucView caspase-3 substrate and analyzed via flow cytometry (Gutierrez et al., Cell biology and toxicology 35, 503-19, 2019) (FIG. 2B).

[12] = test system: MM.1R; assay: DNS cytotoxicity assay, MM.1R; assay type: cell-based; details: Homo sapiens, Multiple Myeloma, 48 or 72 hrs
Text: as §2, §4

[13] = test system: JVM-13; assay: DNS cytotoxicity assay, JVM-13; assay type: cell-based; details: Homo sapiens, JVM13; Mantle cell Lymphoma; 48 or 72 hrs
Text: as §2, §4

[14] = test system: MDA-468; assay: DNS cytotoxicity assay, MDA-468; assay type: cell-based; details: Homo sapiens; Breat Cancer; 72 hrs
Text: as §2, §4

[15] = test system: Tubulin; assay: Tubulin polymerization, biochemical assays
[16] = test system: JVM-2; assay: DNS cytotoxicity assay, JVM-2; assay type: cell-based; details: Homo sapiens, Mantle cell Lymphoma, 48 or 72 hrs
Text: as §2, §4

[17] = test system: HCC1419; assay: DNS cytotoxicity assay, HCC1419; assay type: cell-based; details: Homo sapiens, Breat Cancer, 72 hrs
Text: as §2, §4

[18] = test system: caspase-3 in CEM cells; assay: Caspase-3 activation, NucView substrate, flow cytometry; assay type: cell-based, human; details: 7 h, P<0.05 vs DMSO control
Procedure: as §5, §6

[19] = test system: HL-60 leukemia cell line; assay: Apoptosis induction in HL-60; assay type: cell-based
[20] = test system: membrane microtubule organization; assay: Membrane microtubule organization; assay type: cell-based; details: 2 hours; vs DMSO control
[21] = test system: T47D; assay: DNS cytotoxicity assay, T47D; assay type: cell-based; details: Homo sapiens, Breat Cancer, 72 hrs
Text: as §2, §4

[22] = test system: CEM cells; assay: Mode of cell death: intrinsic apoptosis pathway; assay type: cell-based, human
Procedure: as §5
These compounds were tested in mice at a concentration of 160 mg/kg and after 3-4 daily doses, animals tolerated the treatments well. Different cytotoxicity patterns of the compounds against distinct cell lines has been noted, and it is therefore possible that distinct pyrazoles will act on distinct cellular effectors with different modes of action. However, all of the pyrazole compounds so far tested including SSK-3 induce cell death via the intrinsic apoptosis pathway as will be described below.

[23] = test system: cell cycle; assay: Cell cycle arrest; assay type: cell-based; details: data not shown
[24] = test system: RPMI-8226; assay: DNS cytotoxicity assay, RPMI-8226; assay type: cell-based; details: Homo sapiens, Multiple Myeloma, 48 or 72 hrs
Text: as §2, §4

[25] = test system: PANC-1; assay: DNS cytotoxicity assay, PANC-1; assay type: cell-based; details: Homo sapiens, Pancreatic cancer, 72 hrs
Text: as §2, §4

[26] = test system: HL-60; assay: DNS cytotoxicity assay, HL-60; assay type: cell-based; details: Homo sapiens, Lymphoma-Leukemia, 48 hrs
Text: as §2, §4

[27] = test system: U226; assay: DNS cytotoxicity assay, U226; assay type: cell-based; details: Homo sapiens, Multiple Myeloma, 48 or 72 hrs
Text: as §2, §4

[28] = test system: Colo 205; assay: DNS cytotoxicity assay, Colo 205; assay type: cell-based; details: Homo sapiens, Colon Cancer, 72 hrs
Text: as §2, §4

[29] = test system: K562; assay: DNS cytotoxicity assay, K562; assay type: cell-based; details: Homo sapiens, Lymphoma-Leukemia, 48 hrs
Text: as §2, §4

[30] = test system: Z138; assay: DNS cytotoxicity assay, Z138; assay type: cell-based; details: Homo sapiens, Z-138; Mantle cell Lymphoma; 48 or 72 hrs
Text: as §2, §4

[31] = test system: MiNO; assay: DNS cytotoxicity assay, MiNO; assay type: cell-based; details: Homo sapiens, Mantle cell Lymphoma, 48 or 72 hrs
Text: as §2, §4

[32] = test system: MM.1S; assay: DNS cytotoxicity assay, MM.1S; assay type: cell-based; details: Homo sapiens, MM1.S; Multiple Myeloma; 48 or 72 hrs
Text: as §2, §4

[33] = 72 hr incubations, read-out: Cell Line CC50 MDA-MD-231*
[34] = 72 hr incubations, non-cancerous, read-out: Cell Line CC50 HS-27*
[35] = Homo sapiens, CCRF-CEM, Initial Screen, DNS assay, read-out: CEM CC50

Structure (SMILES): O=C(N/N=C/c1ccc(Br)cc1)c1n[nH]c2c1CCC2 [P3C.1]
- CC50 at 72 h [1]: 420 nM
- CC50 [2]: 390 nM
- CC50 [3, 33]: 97 nM
- CC50 at 72 h [4, 34]: 780 nM

Structure (SMILES): OO [H2O2, reference compound]
- percentage of PS externalization ([5]; positive control for death): ~78%

Structure (SMILES): O=C(N/N=C/c1c(O)ccc2ccccc12)c1n[nH]c2c1CCCC2 [P3C.3]
- CC50 at 72 h [1]: 2160 nM
- CC50 [3, 33]: 1610 nM
- CC50 at 72 h [4, 34]: > 10000 nM

Structure (SMILES): COc1ccc(-c2nn(-c3ccccc3)cc2/C=N/NC(=O)c2n[nH]c3c2CCC3)cc1 [SSK-11]
- CC50 [6, 35]: 3140 ± 330 nM

Structure (SMILES): Cc1ccc2c(c1)/C(=N/NC(=O)c1n[nH]c3c1CCC3)C(=O)N2 [SSK-3, N-(5-methyl-2-oxoindolin-3ylidene)-1,4,5,6-tetrahydrocyclopenta[c]pyrazole-3-carbohydrazide]
- Generation of Reactive Oxygen Species (ROS) [7]: led to the generation of Reactive Oxygen Species (ROS)
- CC50 [8]: 1240 nM
- CC50 [9]: 1650 nM
- CC50 [10]: 2040 nM
- Mitochondrial depolarization [11]: Mitochondrial depolarization was observed
- CC50 [12]: 3880 nM
- CC50 [13]: 790 nM
- CC50 [14]: 3980 nM
- PS externalization ([5]; CC50 and 2×CC50 (0.24 and 0.48 μM printed), vs solvent control): induces significant PS externalization in a dose-response manner; also recorded: Induction of Phosphatidylserine (PS) externalization
- Tubulin polymerization inhibition [15]: inhibiting tubulin polymerization
- CC50 [16]: 790 nM
- times more cytotoxic toward Jurkat than HS27 ([2]; CC50 HS27 / CC50 Jurkat): 37 times
- CC50 [2]: 420 nM
- CC50 [17]: > 20000 nM
- caspase-3 activation [18]: induced a statistically significant activation of caspase-3; also recorded: Activation of Caspase 3 was detected
- CC50 ([6]; Homo sapiens, CCRF-CEM, 48 h, Table 4, Lymphoma-Leukemia, 48 hrs, read-out: CC50 CEM): 1400 nM
- CC50 ([6]; Initial Screen, DNS assay, read-out: CEM CC50): 1390 ± 680 nM
- induction of apoptosis [19]: induced apoptosis via mitochondrial depolarization and phosphatidylserine membrane exposure
- disruption of membrane microtubule organization [20]: severe disruption of membrane microtubule organization
- CC50 [21]: 3870 nM
- induction of the intrinsic apoptosis pathway [22]: induces the intrinsic apoptosis pathway
- cell cycle arrest [23]: cause cell cycle arrest and interfere with cellular replication
- CC50 [24]: 2470 nM
- CC50 [25]: 1860 nM
- CC50 [26]: 750 nM
- CC50 ([3]; Table 4, Breat Cancer, 72 hrs, read-out: CC50 MDA-MB231): 2300 nM
- CC50 [27]: 4440 nM
- CC50 [28]: 2430 nM
- CC50 at 72 h ([4]; Table 4, Normal Fibroblast, 72 hrs, read-out: CC50 HS27): 15400 nM
- CC50 [29]: 2130 nM
- CC50 [30]: 3360 nM
- CC50 [31]: 1070 nM
- CC50 [32]: 4610 nM

Structure (SMILES): O=C(N/N=C/c1cn(-c2ccccc2)nc1-c1ccc(Cl)cc1)c1n[nH]c2c1CCC2 [SSK-10]
- CC50 [6, 35]: 7830 ± 130 nM

Structure (SMILES): O=C(N/N=C/c1cn(-c2ccccc2)nc1-c1cc2ccccc2oc1=O)c1n[nH]c2c1CCC2 [SSK-12]
- CC50 [6, 35]: 8250 ± 260 nM

Structure (SMILES): COc1ccc(/C=N/NC(=O)c2n[nH]c3c2CCC3)cc1O [P3C.10]
- CC50 at 72 h [1]: 2460 nM
- CC50 [3, 33]: 2910 nM
- CC50 at 72 h [4, 34]: > 10000 nM

Structure (SMILES): O=C(N/N=C/c1ccc(OCc2cn(Cc3ccccc3)nn2)cc1)c1n[nH]c2c1CCC2 [SSK-14]
- CC50 [6, 35]: > 10000 nM

Structure (SMILES): O=C(N/N=C/c1ccc(OCc2cn(Cc3ccc([N+](=O)[O-])cc3)nn2)cc1)c1n[nH]c2c1CCC2 [SSK-15]
- CC50 [6, 35]: > 10000 nM

Structure (SMILES): O=C1Nc2ccccc2/C1=N/NC(=O)c1n[nH]c2c1CCC2 [SSK-1]
- CC50 [6, 35]: 12100 ± 1110 nM
